We go through 18 compounds from patent publication US11358969B2, “Indole AHR inhibitors and uses thereof” (Ikena Oncology, Inc., priority 2017, dated 2022).

Molecules are shown by their SMILES.

By IC50 is commonly meant the concentration that gives 50% inhibition. High values mean weaker potency, low ones greater potency.

This experiment has as its target T1, AHR (UniProt P35869).
T1 construct: IC50
T1 sequence (P35869 1-848): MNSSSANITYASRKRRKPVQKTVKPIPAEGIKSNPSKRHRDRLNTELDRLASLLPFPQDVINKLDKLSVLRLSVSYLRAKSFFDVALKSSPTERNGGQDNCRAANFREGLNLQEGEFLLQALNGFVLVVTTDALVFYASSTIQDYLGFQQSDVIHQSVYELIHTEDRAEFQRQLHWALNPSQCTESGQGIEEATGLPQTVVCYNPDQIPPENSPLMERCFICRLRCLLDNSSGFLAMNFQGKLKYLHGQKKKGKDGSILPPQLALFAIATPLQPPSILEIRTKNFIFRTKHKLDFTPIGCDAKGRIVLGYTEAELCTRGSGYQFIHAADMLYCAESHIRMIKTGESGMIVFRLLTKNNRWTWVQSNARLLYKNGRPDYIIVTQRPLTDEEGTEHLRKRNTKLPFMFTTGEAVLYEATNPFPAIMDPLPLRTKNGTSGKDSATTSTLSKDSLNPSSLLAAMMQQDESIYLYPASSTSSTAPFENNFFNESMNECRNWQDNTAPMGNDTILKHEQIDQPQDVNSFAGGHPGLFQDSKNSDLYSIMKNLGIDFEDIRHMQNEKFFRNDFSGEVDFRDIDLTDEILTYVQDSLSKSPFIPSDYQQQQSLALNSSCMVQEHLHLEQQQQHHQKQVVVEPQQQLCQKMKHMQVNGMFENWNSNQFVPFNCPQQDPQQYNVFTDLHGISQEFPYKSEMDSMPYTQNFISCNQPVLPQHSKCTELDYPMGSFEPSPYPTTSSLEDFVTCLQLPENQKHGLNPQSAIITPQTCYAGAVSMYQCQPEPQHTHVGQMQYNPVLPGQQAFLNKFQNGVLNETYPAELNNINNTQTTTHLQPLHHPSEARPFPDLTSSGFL
Briefly: DRE-Luciferase Reporter Assay (Alternate Method) (Example 1B). The class given is cell-based, murine or human. As to conditions: cell line and AHR activating ligand not specified.
For the compound `Fc1cncc(-c2cc(NCCc3c[nH]c4ccccc34)n3ncc(C4CCCO4)c3n2)c1` (stereo not drawn) [I-226, 5-(5-Fluoro-3-pyridyl)-N-[2-(1H-indol-3-yl)ethyl]-3-tetrahydrofuran-2-yl-pyrazolo[1,5-a]pyrimidin-7-amine], the IC50 was less than 0.5 µM.

In the case of `CC(C)c1cnn2c(NCCc3c[nH]c4ccccc34)cc(-c3cccc4c3OCO4)nc12` [I-227, 5-(1,3-Benzodioxol-4-yl)-N-[2-(1H-indol-3-yl)ethyl]-3-isopropyl-pyrazolo[1,5-a]pyrimidin-7-amine], the IC50 is less than 0.5 µM.

In turn, `CC(C)c1cnn2c(NC3CCc4[nH]c5ccccc5c4C3)cc(-c3cccc4c3OCO4)nc12` (stereo not drawn) [I-228] displayed an IC50 of more than 1.5 µM.

For `CC(C)c1cnn2c(N[C@@H]3CCc4[nH]c5ccccc5c4C3)cc(-c3cncnc3)nc12` [I-229, (3R)—N-(3-Isopropyl-5-pyrimidin-5-yl-pyrazolo[1,5-a]pyrimidin-7-yl)-2,3,4,9-tetrahydro-1H-carbazol-3-amine], the IC50 is more than 1.5 µM.

As for `C=Cc1cnn2c(NCCc3c[nH]c4ccccc34)cc(-c3cncc(F)c3)nc12` [I-230, 5-(5-Fluoro-3-pyridyl)-N-[2-(1H-indol-3-yl)ethyl]-3-vinyl-pyrazolo[1,5-a]pyrimidin-7-amine], the IC50 is less than 0.5 µM.

For the compound `NC(=O)c1cnn2c(NC3CCc4[nH]c5c(F)cccc5c4C3)cc(-c3cncc(F)c3)nc12` (stereo not drawn) [I-231], the IC50 is more than 1.5 µM.

`Cc1cnn2c(N[C@@H]3Cc4ccc(O)cc4C3)cc(-c3cncc(F)c3)nc12` [I-232, (2R)-2-[[5-(5-Fluoro-3-pyridyl)-3-methyl-pyrazolo[1,5-a]pyrimidin-7-yl]amino]indan-5-ol] had an IC50 of less than 0.5 µM.

With `CC(C)n1cnc2c(NCCc3ccc(O)cc3)nc(-c3csc4ccccc34)nc21` [I-233], the concentration for half-maximal inhibition (IC50) lay within 0.5 to 1 µM.

`CC(C)c1cnn2c(N[C@@H]3Cc4ccc(O)cc4C3)cc(-c3cncc(F)c3)nc12` [I-234, (2R)-2-[[5-(5-Fluoro-3-pyridyl)-3-isopropyl-pyrazolo[1,5-a]pyrimidin-7-yl]amino]indan-5-ol] showed an IC50 of 0.5 to 1 µM.

`COc1cncc(-c2cc(NC3CCc4[nH]c5ccccc5c4C3)n3ncc(C(C)C)c3n2)c1` (stereo not drawn) [I-236] displayed a 50% inhibitory concentration (IC50) of more than 1.5 µM.

`CCc1cnn2c(NCCc3c[nH]c4ccccc34)cc(-c3cncc(F)c3)nc12` [I-237, 3-Ethyl-5-(5-fluoro-3-pyridyl)-N-[2-(1H-indol-3-yl)ethyl]pyrazolo[1,5-a]pyrimidin-7-amine] registered an IC50 of less than 0.5 µM.

On to `CC(C)c1cnn2c(NC3CCc4[nH]c5ccccc5c4C3)cc(-c3cccc(F)c3)nc12` (stereo not drawn) [I-238], for which the IC50 was more than 1.5 µM.

Turning to `CC(C)c1cnn2c(NC3CCc4[nH]c5ccccc5c4C3)cc(-c3ccc4c(c3)OCO4)nc12` (stereo not drawn) [I-239], the IC50 is more than 1.5 µM.

On to `COc1ccccc1-c1cc(NCCc2c[nH]c3ccccc23)n2ncc(C(C)C)c2n1` [I-240, N-[2-(1H-indol-3-yl)ethyl]-3-isopropyl-5-(2-methoxyphenyl)pyrazolo[1,5-a]pyrimidin-7-amine], for which the IC50 is more than 1.5 µM.

`CC(C)c1cnn2c(NCCc3c[nH]c4ccccc34)cc(-c3cncnc3)nc12` [I-241, N-[2-(1H-Indol-3-yl)ethyl]-3-isopropyl-5-pyrimidin-5-yl-pyrazolo[1,5-a]pyrimidin-7-amine] had an IC50 of less than 0.5 µM.

In the case of `CC(C)c1cnn2c(NCCc3c[nH]c4ccccc34)cc(-c3cccc(F)c3)nc12` [I-242, 5-(3-fluorophenyl)-N-[2-(1H-indol-3-yl)ethyl]-3-isopropyl-pyrazolo[1,5-a]pyrimidin-7-amine], the IC50 is less than 0.5 µM.

For `Cc1cnn2c(N[C@@H]3CCc4[nH]c5c(F)cc(F)cc5c4C3)cc(-c3cncc(F)c3)nc12` [I-243a], the IC50 was more than 1.5 µM.

In turn, `Cc1cnn2c(N[C@H]3CCc4[nH]c5c(F)cc(F)cc5c4C3)cc(-c3cncc(F)c3)nc12` [I-243b] displayed an IC50 of more than 1.5 µM.
